Data on 36 molecules can be found in patent publication US12503436B2, “Compounds and compositions for treating conditions associated with STING activity” (NOVARTIS PHARMA AG, priority 2021, dated 2025).

For the test, the target named is STING (Homo sapiens, UniProt Q86WV6, G230A/H232R/R293Q/R71H). Nature of the test: STING reporter assay in THP1-Dual KO-IFNAR2 cells (2′3′cGAMP stimulation, luciferase reporter). Type of test: cell-based. To be noted: 15 μM 2′3′cGAMP stimulation, 24 h, read-out: Pharmaron, THP1_IFNAR2 STING 24 h Luci Normalized: GeoMean EC50. In a few lines: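 THP1-Dual KO-IFNAR2 cells (2×10E6 cells/mL) with compounds at 0.0017-100 μM final, stimulated with 15 μM final 2′3′cGAMP delivered by Lipofectamine 2000; 24 h at 37 °C. Luciferase in supernatant read with QUANTI-Luc Plus; EC50 derived from luminescence.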
Chain of STING (Q86WV6 whole entry R71H/G230A/H232R/R293Q): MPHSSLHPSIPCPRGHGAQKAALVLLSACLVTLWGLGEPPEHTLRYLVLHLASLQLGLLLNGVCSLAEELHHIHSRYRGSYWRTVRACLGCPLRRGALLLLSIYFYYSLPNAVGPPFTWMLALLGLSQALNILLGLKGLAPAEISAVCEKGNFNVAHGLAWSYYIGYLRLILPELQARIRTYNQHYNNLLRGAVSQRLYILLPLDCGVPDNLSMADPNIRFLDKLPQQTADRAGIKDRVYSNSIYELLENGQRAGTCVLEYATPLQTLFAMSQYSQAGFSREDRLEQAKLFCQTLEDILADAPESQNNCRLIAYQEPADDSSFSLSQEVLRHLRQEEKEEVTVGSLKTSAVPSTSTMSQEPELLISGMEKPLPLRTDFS
Background: Reporter assays use an easily measured gene product as a stand-in for the process of interest.
As for `N#C[C@H]1C[C@@H]1C(=O)Nc1c[nH]c2ccc(OCCc3ccc(C(F)(F)F)cc3)cc12` [Compound 203, (1S,2S)-2-cyano-N-(5-(4-(trifluoromethyl)phenethoxy)-1H-indol-3-yl)cyclopropane-1-carboxamide], the EC50 is 200 to 1000 nM. With `COCC1(C(=O)Nc2c[nH]c3ccc(OCCc4ccc(C(F)(F)F)cc4)cc23)CC1` [Compound 204, 1-(methoxymethyl)-N-(5-(4-(trifluoromethyl)phenethoxy)-1H-indol-3-yl)cyclopropane-1-carboxamide] the figure was 40 to 200 nM; with `C[C@H]1C[C@H](C(=O)Nc2c[nH]c3ccc(OCCc4ccc(C(F)(F)F)cc4)cc23)C1` [Compound 205, trans-3-methyl-N-(5-(4-(trifluoromethyl)phenethoxy)-1H-indol-3-yl)cyclobutane-1-carboxamide], 40 to 200 nM; with `C[C@H]1C[C@@H]1C(=O)Nc1c[nH]c2ccc(OCCc3ccc(C(F)(F)F)cc3)cc12` [Compound 206, (1S,2S)-2-methyl-N-(5-(4-(trifluoromethyl)phenethoxy)-1H-indol-3-yl)cyclopropane-1-carboxamide], 40 to 200 nM. With `O=C(Nc1c[nH]c2ccc(OCCc3ccc(C(F)(F)F)cc3)cc12)C1CC(F)C1` (stereo not drawn) [Compound 207, 3-fluoro-N-(5-(4-(trifluoromethyl)phenethoxy)-1H-indol-3-yl)cyclobutane-1-carboxamide], the EC50 lay in the range of 40 to 200 nM. With `CC(=O)Nc1c[nH]c2ccc(CCOc3ccccc3C3(C)CCN(CC(F)(F)F)CC3)cc12` [Compound 208, N-(5-(2-(2-(4-methyl-1-(2,2,2-trifluoroethyl)piperidin-4-yl)phenoxy)ethyl)-1H-indol-3-yl)acetamide] the figure was 1000 to 5000 nM; with `O=C(Nc1c[nH]c2ccc(C(O)CCc3ccc(C(F)(F)F)cc3)cc12)C1CC1` (stereo not drawn) [Compound 209, N-(5-(1-hydroxy-3-(4-(trifluoromethyl)phenyl)propyl)-1H-indol-3-yl)cyclopropanecarboxamide], 200 to 1000 nM. In the case of `O=C(Nc1c[nH]c2ccc(OCCc3ccc(C(F)(F)F)cc3)cc12)C1CN(CC(F)(F)F)C1` [Compound 210, 1-(2,2,2-trifluoroethyl)-N-(5-(4-(trifluoromethyl)phenethoxy)-1H-indol-3-yl)azetidine-3-carboxamide] it was 40 to 200 nM; in that of `CO[C@H]1C[C@H](C(=O)Nc2c[nH]c3ccc(OCCc4ccc(C(F)(F)F)cc4)cc23)C1` [Compound 211, trans-3-methoxy-N-(5-(4-(trifluoromethyl)phenethoxy)-1H-indol-3-yl)cyclobutane-1-carboxamide], 40 to 200 nM; in that of `CC(=O)Nc1c[nH]c2ccc(CCOc3ccc(C(F)(F)F)cc3)c(F)c12` [Compound 213, N-(4-fluoro-5-(2-(4-(trifluoromethyl)phenoxy)ethyl)-1H-indol-3-yl)acetamide], 200 to 1000 nM. With `CC(=O)Nc1c[nH]c2ccc(CCOc3ccc(Cl)c(Cl)c3)cc12` [Compound 214, N-(5-(2-(3,4-dichlorophenoxy)ethyl)-1H-indol-3-yl)acetamide] the figure was 200 to 1000 nM. Take `CC(=O)Nc1c[nH]c2ccc(CCOc3ccc(C(F)(F)F)cn3)cc12` [Compound 215, N-(5-(2-((5-(trifluoromethyl)pyridin-2-yl)oxy)ethyl)-1H-indol-3-yl)acetamide]: the EC50 lay in the range of 200 to 1000 nM.

With `O=C(Nc1c[nH]c2ccc(OCCc3ccc(C(F)(F)F)cc3)cc12)C1CC1(F)Cl` (stereo not drawn) [Compound 216, 2-chloro-2-fluoro-N-(5-(4-(trifluoromethyl)phenethoxy)-1H-indol-3-yl)cyclopropane-1-carboxamide], the concentration for a half-maximal effect (EC50) lay in the range of 200 to 1000 nM. In the case of `O=C(Nc1c[nH]c2ccc(OCCc3ccc(C(F)(F)F)cc3)cc12)C1CC(Cl)C1` (stereo not drawn) [Compound 217, 3-chloro-N-(5-(4-(trifluoromethyl)phenethoxy)-1H-indol-3-yl)cyclobutane-1-carboxamide] it was 40 to 200 nM. In the case of `O=C(Nc1c[nH]c2ccc(OCCc3ccc(C(F)(F)F)cc3)cc12)C1(F)CC1` [Compound 218, 1-fluoro-N-(5-(4-(trifluoromethyl)phenethoxy)-1H-indol-3-yl)cyclopropane-1-carboxamide] it was 200 to 1000 nM. With `O=C(Nc1c[nH]c2ccc(CCOc3ccc(C(F)(F)F)cc3)cc12)C1CN(CC(F)(F)F)C1` [Compound 219, 1-(2,2,2-trifluoroethyl)-N-(5-(2-(4-(trifluoromethyl)phenoxy)ethyl)-1H-indol-3-yl)azetidine-3-carboxamide] the figure was 40 to 200 nM.

As for `CO[C@H]1C[C@H](C(=O)Nc2c[nH]c3ccc(CCOc4ccc(C(F)(F)F)cc4)cc23)C1` [Compound 220, trans-3-methoxy-N-(5-(2-(4-(trifluoromethyl)phenoxy)ethyl)-1H-indol-3-yl)cyclobutane-1-carboxamide], the EC50 is 40 to 200 nM.

For `CO[C@H]1C[C@@H](C(=O)Nc2c[nH]c3ccc(CCOc4ccc(C(F)(F)F)cc4)cc23)C1` [Compound 221, cis-3-methoxy-N-(5-(2-(4-(trifluoromethyl)phenoxy)ethyl)-1H-indol-3-yl)cyclobutane-1-carboxamide], the EC50 lay in the range of 40 to 200 nM.

For `CO[C@H]1C[C@@H](C(=O)Nc2c[nH]c3ccc(OCCc4ccc(C(F)(F)F)cc4)cc23)C1` [Compound 222, cis-3-methoxy-N-(5-(4-(trifluoromethyl)phenethoxy)-1H-indol-3-yl)cyclobutane-1-carboxamide], the concentration for a half-maximal effect (EC50) was in the range of 40 to 200 nM.

For `CC(=O)Nc1c[nH]c2cc(F)c(CCOc3ccc(C(F)(F)F)cc3)cc12` [Compound 223, N-(6-fluoro-5-(2-(4-(trifluoromethyl)phenoxy)ethyl)-1H-indol-3-yl)acetamide], the EC50 fell in the range of 40 to 200 nM.

In the case of `CC(=O)Nc1c[nH]c2ccc(CCOc3ccc(C4CCC(F)(F)CC4)cc3)cc12` [Compound 224, N-(5-(2-(4-(4,4-difluorocyclohexyl)phenoxy)ethyl)-1H-indol-3-yl)acetamide], the EC50 fell in the range of 40 to 200 nM. With `CC(=O)Nc1c[nH]c2ccc(CCOc3ccc(C4CC(F)(F)C4)cc3)cc12` [Compound 225, N-(5-(2-(4-(3,3-difluorocyclobutyl)phenoxy)ethyl)-1H-indol-3-yl)acetamide] the figure was 40 to 200 nM; with `CC(=O)Nc1c[nH]c2ccc(CCOc3ccc(C4CCOCC4)cc3)cc12` [Compound 226, N-(5-(2-(4-(tetrahydro-2H-pyran-4-yl)phenoxy)ethyl)-1H-indol-3-yl)acetamide], 1000 to 5000 nM. Regarding `O=C(Nc1c[nH]c2ccc(O[C@H]3C[C@H](c4ccc(C(F)(F)F)cc4)C3)cc12)C1CN(CCC(F)(F)F)C1` [Compound 227, N-(5-(trans-3-(4-(trifluoromethyl)phenyl)cyclobutoxy)-1H-indol-3-yl)-1-(3,3,3-trifluoropropyl)azetidine-3-carboxamide], the EC50 lay within 40 to 200 nM. In the case of `CC(=O)Nc1c[nH]c2ccc(CCOc3ccc(C)cc3)cc12` [Compound 228, N-(5-(2-(p-tolyloxy)ethyl)-1H-indol-3-yl)acetamide] it was 200 to 1000 nM; in that of `CC(=O)Nc1c[nH]c2ccc(CCOc3ccc(Cl)cc3)cc12` [Compound 229, N-(5-(2-(4-chlorophenoxy)ethyl)-1H-indol-3-yl)acetamide], 200 to 1000 nM; in that of `CC(=O)Nc1c[nH]c2ccc(CCOc3ccc(C4CCC4)cc3)cc12` [Compound 230, N-(5-(2-(4-cyclobutylphenoxy)ethyl)-1H-indol-3-yl)acetamide], 40 to 200 nM.

With `CC(=O)Nc1c[nH]c2ccc(CCOc3cccc(C(F)(F)F)c3)cc12` [Compound 231, N-(5-(2-(3-(trifluoromethyl)phenoxy)ethyl)-1H-indol-3-yl)acetamide], the EC50 lay within 200 to 1000 nM. `CC(=O)Nc1c[nH]c2ccc(CCOc3ccc(C(F)(F)F)nc3)cc12` [Compound 232, N-(5-(2-((6-(trifluoromethyl)pyridin-3-yl)oxy)ethyl)-1H-indol-3-yl)acetamide]: the EC50 was 1000 to 5000 nM.

Take `CC(=O)Nc1c[nH]c2ccc(OC3CN(c4ccc(C(F)(F)F)cc4)C3)cc12` [Compound 233, N-(5-((1-(4-(trifluoromethyl)phenyl)azetidin-3-yl)oxy)-1H-indol-3-yl)acetamide]: the EC50 was in the range of 40 to 200 nM. With `COC1CC(C(=O)Nc2c[nH]c3ccc(OCCc4ccc(C(F)(F)F)cc4)cc23)C1` (stereo not drawn) [Compound 234, 3-methoxy-N-(5-(4-(trifluoromethyl)phenethoxy)-1H-indol-3-yl)cyclobutane-1-carboxamide] the figure was 40 to 200 nM; with `CC1(C(=O)Nc2c[nH]c3ccc(OCCc4ccc(C(F)(F)F)cc4)cc23)CCC1` [Compound 235, 1-methyl-N-(5-(4-(trifluoromethyl)phenethoxy)-1H-indol-3-yl)cyclobutane-1-carboxamide], 40 to 200 nM. With `CC1(C)CC(C(=O)Nc2c[nH]c3ccc(OCCc4ccc(C(F)(F)F)cc4)cc23)C1` [Compound 236, 3,3-dimethyl-N-(5-(4-(trifluoromethyl)phenethoxy)-1H-indol-3-yl)cyclobutane-1-carboxamide] the figure was 40 to 200 nM; with `CC1(C(=O)Nc2c[nH]c3ccc(OCCc4ccc(C(F)(F)F)cc4)cc23)CCOCC1` [Compound 237, 4-methyl-N-(5-(4-(trifluoromethyl)phenethoxy)-1H-indol-3-yl)tetrahydro-2H-pyran-4-carboxamide], 40 to 200 nM; with `CC1(C(=O)Nc2c[nH]c3ccc(OCCc4ccc(C(F)(F)F)cc4)cc23)COC1` [Compound 238, 3-methyl-N-(5-(4-(trifluoromethyl)phenethoxy)-1H-indol-3-yl)oxetane-3-carboxamide], 40 to 200 nM. `O=C(Nc1c[nH]c2ccc(OCCc3ccc(C(F)(F)F)cc3)cc12)C1CCOCC1` [Compound 239, N-(5-(4-(trifluoromethyl)phenethoxy)-1H-indol-3-yl)tetrahydro-2H-pyran-4-carboxamide]: the EC50 was in the range of 40 to 200 nM.

The term EC50 denotes the midpoint of the concentration-response curve.
